According to a melting point compilation (Tetko et al.; mined from patent text by program, amines drawn as free bases though some values may be those of a salt):

Row | SMILES | melting point
1 | CCCc1nc2ccnn2c(OC)c1Cc1ccc(-c2ccccc2C#N)cc1 | 110 °C
2 | CC(C)(C)NCC(O)c1cc(F)cc(C#N)c1F (stereo not drawn) | 99 to 101 °C
3 | S=c1c2ccc(Cl)cc2nc2n1CCCCC2 | 99 to 101 °C
4 | CC(C)c1cc(Cl)nc(C(C)C)c1N | 53 to 56 °C
5 | CC(C)c1onc(-c2c(Cl)cccc2Cl)c1COc1ccc(N(C)Cc2ccc(C(=O)O)cc2)c(C(F)(F)F)n1 | 96.1 to 97.1 °C
6 | Fc1cccc(OC2CN(C3CCC(c4c[nH]c5cc(F)ccc45)CC3)C2)c1 (stereo not drawn) | 117 to 123 °C
7 | Cc1cc(C)c(NC(=S)C2(C)CCc3c(C)c(O)c(C)c(C)c3O2)cc1C (stereo not drawn) | 124 to 125 °C
8 | CCCCCC(CC(=O)Nc1cc(C(N)=O)ccc1C(C)(C)C)c1ccc(OCCCOC)cc1OC (stereo not drawn) | 65 to 67 °C
9 | COC(=S)C(Cl)=C(C)Cl | 27 to 30 °C
10 | O=C(O)Cc1csc(NC(=O)C(CC2CCCC2)c2ccc(Cl)c(Cl)c2)n1 (stereo not drawn) | 100 to 102 °C
11 | CC(=O)OC1=CCC2C3CCC4CCC(OC(C)=O)CC4(C)C3CCC12C (stereo not drawn) | 133 to 134 °C
12 | CC#CCOc1cc(OCC#CC)ncn1 | 82.9 °C
13 | O=C(c1ccc(F)cc1)c1ccc(C(=O)c2ccc(F)cc2)s1 | 186 °C
14 | Cc1cc(NC(=O)C(C)(O)COc2cccc(C(F)(F)F)c2)ccc1[N+](=O)[O-] (stereo not drawn) | 84 to 87 °C
15 | CC(C)(C)OC(=O)N1CCN2C[C@H](COc3ccc(F)cc3)CC[C@H]2C1 | 90 to 92 °C
16 | COc1cc(C(C)C)ccc1C1(O)C(=O)c2ccc(N)c(NC(C)=O)c2C1=O (stereo not drawn) | 124 to 131 °C
17 | C=CC(=O)N1C(C)(C)CC(=C2CC(C)(C)N(C(=O)C=C)C(C)(C)C2)CC1(C)C | 196 to 198 °C
18 | COC(=O)c1cc(-c2nnn(C)n2)c(C(=O)OC)s1 | 121 to 122 °C
19 | N#CC=Cc1ccc(C=Cc2ccc(C=CC#N)cc2)cc1 | 219 to 221 °C
20 | COC1(OC)SC(c2ccncc2)=C(C)NC1=O | 154 to 155 °C
21 | N#CCC(CC#N)c1ccccc1Br | 94 to 96 °C
22 | CCOC(=O)NC(=O)C(Cl)C(C)=O (stereo not drawn) | 69.5 to 70 °C
23 | CN(Cc1ccc(CCn2cnc3cc(-c4ccc(Cl)cc4)sc3c2=O)cc1)C(=O)C1CC1 | 178 °C
24 | COc1cc(CC(C)=O)ccc1OCCCN1CCC(c2noc3cc(F)ccc23)CC1 | 118 to 119 °C

Row | SMILES | melting point
25 | O=S(=O)(Nc1ccc2c(-c3ccccc3Cl)n[nH]c2c1)c1cccc(Cl)c1 | 187 to 189 °C
26 | CCOC(=O)c1cnc2c(c1NCCN(C)C)NC(=O)CN2 | 183 to 185 °C
27 | CCOC(=O)c1csc(Br)n1 | 66 to 68 °C
28 | O=C1CCSc2sccc21 | 61 to 62 °C
29 | Clc1ccc(N2CCCCC2)cc1 | 69 °C
30 | O=C(Nc1ccc2[nH]c(=O)[nH]c2c1)C(=O)N1CCC(Cc2ccc(Cl)cc2)CC1 | 299 to 300 °C
31 | Fc1cccc(OC2CN([C@H]3CC[C@@H](c4c[nH]c5ccc(F)cc54)CC3)C2)c1 | 119 to 125 °C
32 | COc1cccc2c1CCCC2CN=[N+]=[N-] (stereo not drawn) | 65 to 66 °C
33 | CCCCP(=O)(O)CC(C)(O)CN (stereo not drawn) | 187 to 189 °C
34 | Cc1cc(-c2cccc(-c3ccc(C4(O)C5CCC4CN(Cc4ccccc4)C5)cc3)n2)c(C)[nH]1 (stereo not drawn) | 58 to 68 °C
35 | O=[PH]1Oc2ccccc2-c2ccccc21 (stereo not drawn) | 116 °C
36 | Cc1cc(N2C=CC(=O)CC2)nn2cnnc12 | 264 to 266 °C
37 | C[C@@H]1CN(c2ncc(Cl)cc2Cl)CCN1c1nc2c(Br)cc(C(F)(F)F)cc2[nH]1 | 135 to 137 °C
38 | O=C(N[C@H]1C[C@H](C(=O)O)Nc2cc(Cl)cc(Cl)c21)C1CCCCC1 (relative stereo) | 190 to 195 °C
39 | CCCCC1(N(C)C)CCC(c2[nH]c3ccccc3c2C)(c2[nH]c3ccccc3c2CCNC(=O)Nc2ccccc2)CC1 (stereo not drawn) | 115 to 120 °C
40 | CCON=C(CC)C1=C(O)CC(c2ccc(NC(=O)OC)cc2)CC1=O (stereo not drawn) | 160 to 161 °C
41 | CCCc1c(OCCCCCC(=O)c2ccc3cc(OC)c(OC)cc3c2)ccc(C(=O)O)c1O | 144 to 146 °C
42 | CS(=O)(=O)c1ccc(-c2cc(C(F)(F)F)nn2-c2ccc(CO)cc2)cc1 | 129 to 133 °C
43 | COc1ccc2c(c1)CCc1cc(OC)ccc1N2 | 123 to 124 °C
44 | Cc1cccc(C2(C(N)=S)CCCS2)n1 (stereo not drawn) | 171 °C
45 | COc1cc2c(cc1-c1nocc1-c1ccccc1C#N)C(C)(C)CCC2(C)C | 202 to 203 °C
46 | CCCCc1nc(=O)c2cc(Br)c(F)cc2[nH]1 | 225 °C
47 | COC(=O)c1cc2cc(OC)c(OC)cc2cn1 | 215 °C

Next, values leading:

Row | melting point | SMILES
48 | 136 to 138 °C | O=[N+]([O-])c1ccc2sc(=Nc3ccccc3)sc2c1
49 | 209 to 211 °C | CCN1CS(=C2SC(=S)N(Cc3ccccc3)C2=O)c2ccccc21 (stereo not drawn)
50 | 97 to 98 °C | CC(C)C(O)(CCc1ccc(OCc2ccccc2)cc1)CC(=O)O (stereo not drawn)
51 | 42 to 44 °C | CCc1cc(C(=O)c2ccccc2)c(O)cc1OCCCCC#N
52 | 164 to 166 °C | NC(=O)N1C(=O)C(C(=O)c2cc(Cl)cs2)c2cc(C(F)(F)F)ccc21 (stereo not drawn)
53 | 195 to 197 °C | Cn1cc(C2=C(c3cn(CCCN)c4ccccc34)C(=O)NC2=O)c2ccccc21
54 | 211 to 212 °C | COC(=O)C1=C(C)NC(C)=C(S(C)(=O)=O)C1c1ccccc1[N+](=O)[O-] (stereo not drawn)
55 | 86 to 87.5 °C | O=C(O)[C@H]1CCCN1C(=O)CCCc1ccccc1
56 | 106 to 109 °C | COCCOCCn1cc(C(=O)NCc2ccc(Cl)cc2)c(=O)c2cc(CN(C)[C@H](C)[C@@H](O)c3ccccc3)ccc21
57 | 64 to 65 °C | CCOC(=O)Cc1cccc(-c2nc(CCl)c(C)o2)c1
58 | 82 to 85 °C | Cc1ccc2c(OCCCl)c3ccccc3c(OCCCl)c2c1
59 | 197 to 200 °C | COc1cccc(C(=O)n2c3c(c4ccccc42)CC(C(=O)O)CC3)c1 (stereo not drawn)
60 | 148 °C | CCCOc1ccccc1-c1nc(NCCCO)cc(=O)[nH]1
61 | 103 to 104 °C | CC(C)COC(=O)NC1=NCC(c2ccccc2)N1C (stereo not drawn)
62 | 111 to 112 °C | COc1ccc(-c2cccc(C(=O)NCCO)c2)c2cc(Cc3cccc(C(F)(F)F)c3)oc12
63 | 104 °C | CCCCCCCc1cc(O)cc(O)c1C(=O)OCc1ccccc1
64 | 287 to 289 °C | O=c1nc(-c2c(-c3ccccc3)nn3ccccc23)cc[nH]1
65 | 135 to 137 °C | C#CCCCCOc1cc(/C=C/C(=O)Nc2ccccc2C(=O)O)ccc1OC
66 | 175 to 178 °C | COc1cc(OC)nc(NC(=O)NS(=O)(=O)c2ccccc2-c2cnoc2)n1
67 | 288 to 290 °C | COc1cc2c(=O)n(CCCn3ccnc3)c3c4ccccc4[nH]c(=O)c3c2cc1OC
68 | 127 to 129 °C | CCn1c2ccccc2c2oc(C(=O)Cl)cc21
69 | 151 to 172 °C | CC(CCN1C(=O)c2ccccc2C1=O)=NO
70 | 195 to 197 °C | O=C(O)COc1c(F)ccc(-c2c3ccccc3c(Br)c3sc4ccccc4c23)c1F
71 | 120 to 130 °C | CC(C)C[C@H](NS(=O)(=O)c1ccc2c(c1)Sc1ccccc1O2)C(=O)O
72 | 66 to 67.5 °C | CCOC(=O)c1ccc(-c2nc(C(=O)OCC)ns2)cc1
73 | 94 to 95 °C | CCOC(=O)C1(CCl)Nc2cc(C)cc(C)c2C(=O)N1c1ccccc1Cl (stereo not drawn)
